Literature values in patent US20140100283A1, “Method to Increase Absorption and Bioavailability of Oral Glutathione” (Atlantic Pro Nutrients, Inc. dba XYMOGEN, priority 2012, published 2014).

Conditions: in vivo

N[C@@H](CCC(=O)N[C@@H](CS)C(=O)NCC(=O)O)C(=O)O [glutathione, Glutathione]
increase in circulating glutathione after oral administration: does not increase circulating glutathione to a clinically beneficial extent
